In article PMC5080355, “Interaction of the Nitrogen Regulatory Protein GlnB (PII) with Biotin Carboxyl Carrier Protein (BCCP) Controls Acetyl-CoA Levels in the Cyanobacterium Synechocystis sp. PCC 6803” (Frontiers in Microbiology, 2016):

Columns and labels:
[1] = target: T1, SyGlnB (PII) in complex with SyBCCP (Synechocystis sp. PCC 6803, UniProt Q55247, S49C); experiment: biochemical
T1 construct: gene glnB

[2] = target: T2, SyGlnB (PII) in complex with SyBCCP (Synechocystis sp. PCC 6803, UniProt Q55247, S49D); experiment: biochemical
T2 construct: gene glnB

[3] = target: T3, SyGlnB (PII) in complex with SyBCCP (Synechocystis sp. PCC 6803, UniProt Q55247); experiment: biochemical; parameters: gene glnB
[4] = target: T3, SyGlnB (PII) in complex with SyBCCP; experiment: pull-down of GlnB with His-BCCP on Ni-NTA magnetic beads, SDS-PAGE densitometry, 2-OG titration; type: binding; parameters: gene glnB; GlnB C-terminally Strep-tagged (pASK-IBA3glnBSc); bait His-tagged BCCP (pET15accB), biotinylated with E. coli BirA; both expressed in E. coli and purified; GlnB homotrimer; with Biotin carboxyl carrier protein of acetyl-CoA carboxylase; conditions: read-out: apparent IC50

T3 sequence (Q55247 whole entry): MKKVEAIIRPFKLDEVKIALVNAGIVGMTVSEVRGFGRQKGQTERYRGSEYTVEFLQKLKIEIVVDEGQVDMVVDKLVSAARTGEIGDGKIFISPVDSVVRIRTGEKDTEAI
T3 sequence (Q55120 1-154 partner): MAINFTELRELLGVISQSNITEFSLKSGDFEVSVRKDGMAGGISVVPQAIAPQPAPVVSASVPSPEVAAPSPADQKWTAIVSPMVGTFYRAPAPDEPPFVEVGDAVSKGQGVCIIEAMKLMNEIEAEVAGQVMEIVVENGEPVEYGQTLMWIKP
T1 sequence (Q55120 entry or part of it, stated change not applied): as the sequence (Q55120 1-154 partner) above
T1 sequence (Q55247 whole entry S49C): as the sequence (Q55247 whole entry) above, with S49C counted along it
T2 sequence (Q55247 whole entry S49D): as the sequence (Q55247 whole entry) above, with S49D counted along it
T2 sequence (Q55120 entry or part of it, stated change not applied, further chain): as the sequence (Q55120 1-154 partner) above

Row | EC50 [1] [µM] | EC50 [2] [µM] | EC50 [3] [µM] | IC50 [4] [µM] | SMILES
1 | 143 | 231 | 68 | – | Nc1ncnc2c1ncn2[C@@H]1O[C@H](COP(=O)(O)OP(=O)(O)OP(=O)(O)O)[C@@H](O)[C@H]1O [ATP]
2 | – | – | – | 41.3 | O=C(O)CCC(=O)C(=O)O [2-OG]
